This is an account of results in patent EP1409705B1, “A PROCESS FOR THE PRODUCTION OF AN INHIBITOR OF HUMAN PLATELET AGGREGATION AND SOYBEAN LIPOXYGENASE” (Council of Scientific and Industrial Research;an Indian …, priority 2001, dated 2002).

For orientation: IC50 means the point on the concentration scale where inhibition reaches its midpoint.

The test system of data set [1] is human platelet aggregation. Description: human platelet aggregation inhibition. Format: cell-based. The following applies: purified inhibitor, red crystals, read-out: ic50 activity against human platelet aggregation.
The target of the next data set is T1, soybean lipoxygenase (Glycine max, UniProt P08170).
T1 sequence (P08170 1-839): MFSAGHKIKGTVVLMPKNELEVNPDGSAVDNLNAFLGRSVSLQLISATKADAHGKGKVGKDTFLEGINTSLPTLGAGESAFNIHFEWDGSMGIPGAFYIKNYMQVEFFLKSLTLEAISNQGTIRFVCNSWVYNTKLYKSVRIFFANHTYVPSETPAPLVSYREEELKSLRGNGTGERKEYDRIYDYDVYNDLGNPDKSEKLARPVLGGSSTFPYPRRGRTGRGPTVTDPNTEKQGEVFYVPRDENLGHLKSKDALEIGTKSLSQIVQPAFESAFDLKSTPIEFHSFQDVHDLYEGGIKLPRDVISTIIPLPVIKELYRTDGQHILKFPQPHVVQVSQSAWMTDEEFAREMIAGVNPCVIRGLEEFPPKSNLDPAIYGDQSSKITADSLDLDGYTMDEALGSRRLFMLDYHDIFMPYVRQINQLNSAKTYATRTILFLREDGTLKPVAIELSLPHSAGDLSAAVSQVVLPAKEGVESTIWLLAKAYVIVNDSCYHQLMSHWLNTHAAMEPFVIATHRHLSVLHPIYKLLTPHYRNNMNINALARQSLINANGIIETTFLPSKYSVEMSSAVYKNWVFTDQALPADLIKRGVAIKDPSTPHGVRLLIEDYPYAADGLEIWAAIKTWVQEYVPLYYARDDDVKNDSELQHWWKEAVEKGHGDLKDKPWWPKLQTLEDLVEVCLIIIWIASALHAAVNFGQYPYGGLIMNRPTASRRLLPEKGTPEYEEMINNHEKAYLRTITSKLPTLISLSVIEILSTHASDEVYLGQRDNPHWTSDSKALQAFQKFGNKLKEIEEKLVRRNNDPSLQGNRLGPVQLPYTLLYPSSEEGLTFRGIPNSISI
Description: soybean lipoxygenase inhibition. In kind it is biochemical. The following applies: purified inhibitor, red crystals; pH 9; read-out: ic50 activity against soybean lipoxygenase.

Data set [2] is described as follows: solubility in organic solvents. Format: physicochemical. The following applies: in chloroform, dimethylsulfoxide, acetonitrile.

Regarding `CCC(=O)C=CC=CC(C)=CC=CC=Cc1ccccc1` [inhibitor, 8-methyl 13-phenyl trideca 4,6,8,10,12 pentene-3-one], the IC50 worked out at 234 µM in data set [1] and 95.6 µM on soybean lipoxygenase. In data set [2], the Solubility result is on record as “highly soluble”.
